# According to PMC5834442, “Identifying inhibitors of the Leishmania inositol phosphorylceramide synthase with antiprotozoal activity using a yeast-based assay and ultra-high throughput screening platform” (Scientific Reports, 2018):
# Entries after “also recorded” stand apart in the source; their conditions may differ. Where two headings read alike, the source gives them in different places.
# What was measured:
# THP-1 macrophages = assay: Host cell toxicity in the intramacrophage assay; format: cell-based, human; conditions: for IC50: Homo sapiens, THP-1 host cells in intramacrophage assay, read-out: pIC50 THP-1 (converted)
# HepG2 cells = assay: Mammalian cell cytotoxicity assay (CellTiter-Glo); format: cell-based, human; conditions: for IC50: Homo sapiens, -logIC50 mol against HepG2, read-out: PIC50 HepG2 (converted)
# [1] = tested on: L. donovani (MHOM/SD/62/1S-CL2D, LdBOB) axenic amastigotes; assay: Leishmania donovani axenic amastigote dose response assay (resazurin); format: cell-based
# [2] = tested on: intra-macrophage Leishmania donovani amastigotes; assay: Intramacrophage Leishmania donovani assay (high content imaging); format: cell-based; conditions: for IC50: Leishmania donovani
# [3] = tested on: L. major (MHOM/IL/81/Friedlin) wild type; assay: L. major axenic cell assay (alamarBlue), wild type; format: cell-based; conditions: Leishmania major; −logIC50 M; 72 hours; read-out: pIC50 against wild type Leishmania major (converted)
# Excerpt: (§1) However, whilst compound 1 was antiprotozoal and a potent IPC synthase inhibitor, it was unclear whether the mode of action was on-target. To analyze this further, the in-house availability of a sphingolipid mutant L. major (Δlcb2) was exploited. This line[24] lacks serine palmitoyltransferase activity, and whilst LmjFIPCS is still present it is redundant in the absence of in situ substrate. […] […]. Therefore, it is likely that off-target activity has a role in the antileishmanial activity of this benzazepane.
# (§2) From a previously described protocol, L. major (MHOM/IL/81/Friedlin, wild type and ΔLCB2 mutant)[24] were added to 96-well plates (Corning) at 1 × 10^4 ml^−1 in growth media with appropriate concentrations of compounds and controls (vehicle and assay media alone, with the robustness of the platform indicated by Z’ values > 0.5)[29] in 100 µl. […]. Analyses were carried out using GraphPad Prism 7.
# L. major Δlcb2 mutant = assay: L. major axenic cell assay (alamarBlue), sphingolipid mutant Δlcb2; format: cell-based; conditions: Leishmania major, 72 h, read-out: pIC50 against L. major Δlcb2 mutant (converted)
# Excerpt: as §1, §2
# LmjFIPCS = target: T1, LmjFIPCS (Leishmania major, UniProt E9AFX2); assay: Biochemical LmjFIPCS assay with CHAPS-washed microsomal membranes; conditions: for IC50: read-out: pIC50 against LmjFIPCS in vitro (converted)
# T1 construct: The complete open reading frames of LmjFIPCS and AUR1p was amplified from genomic DNA; made in house
# Description: Utilizing the availability of an in-house designed and validated biochemical assay for LmjFIPCS[19],[22], following re-synthesis in the free-base form (Aptuit, Verona, Italy) the two benzazepane hits were biochemically analyzed in a dose response assay (8 compound concentrations between 100 μM and 46 nM; Fig. 5). […].
# Microsomal material was prepared and CHAPS washed from α ade^−.lys^−.leu^−.Δaur1^−.pESC-LEU_ LmjFIPCS as previously described[19],[22]. Briefly, each compound at the desired concentration was incubated, in at least triplicate, in 96-well plates (Corning) in phosphate buffer (71.4 mM, pH 7.0) with PI (100 µM, final concentration, Avanti Polar Lipids), CHAPS (600 µM, Sigma-Aldrich) and CHAPS-washed microsomal membranes (0.6 U enzyme per reaction) for 15 minutes at 30 °C. NBD-C6-ceramide (5 µM; ThermoFisher) was added, final volume of 40 µl per well, and the plates incubated at 30 °C for a further 25 minutes. […]. Analyses were carried out using GraphPad Prism 7.
# in cellulo LmjFIPCS = target: T2, in cellulo LmjFIPCS (Leishmania major, UniProt E9AFX2); assay: In cellulo IPC synthase assay (BODIPY FL C5-ceramide incorporation into IPC, HPTLC); format: cell-based; conditions: L. major ΔLCB2, 10 μM of compound, compared with compound 1
# T2 construct: endogenous in cells; host or cells: L. major (MHOM/IL/81/Friedlin) Δlcb2 mutant
# Description: Figure 7 In cellulo activity against LmjFIPCS. […] L. major ΔLCB2 treated with 10 μM of compound prior to metabolic labelling with BODIPY FL C5-ceramide. Inhibition of the incorporation of label into IPC was measured following HPTLC in comparison with a control (vehicle treated). […]. P = 0.006 in students’ t-test indicating the difference is significant (**≤ 0.01).
# The L. major Δlcb2 mutant, maintained in Schneider’s media (Sigma-Aldrich) with 15% sera (ThermoFisher), were washed and 200 µl, at 1 × 10^7 ml^−1, incubated in serum free media for 60 minutes at 26 °C before the addition of 10 µM of the compounds, in at least triplicate, and further incubation for 18 hours. Subsequently, the reaction was initiated by the addition of BODIPY FL C5-ceramide complexed to BSA (1.25 µl of 0.5 mM, ThermoFisher). Following further incubation at 26 °C for 1 hour, the lipids were extracted by phase separation in chloroform:methanol:water (10:10:3, 200 µl) and fractionated on HTPLC plates, as previously. The fluorescence was read at Ex475/Em520 using a Fuji FLA-3000 plate reader and AIDA Image Analyser software (version 3.52).
# [4] = selectivity: pIC50 InMac minus pIC50 THP-1
# [5] = selectivity: pIC50 axenic minus pIC50 HepG2
# [6] = -logIC50 mol against L. donovani (LdBOB) axenic amastigotes, read-out: pIC50 Axenic (converted)
# [7] = intramacrophage L. donovani, read-out: pIC50 InMac (converted)
# [8] = −logIC50 M, biochemical assay, at least 3 independent experiments
# [9] = −logIC50 M, 72 hours, read-out: pIC50 against axenic L. donovani amastigotes (converted)
# [10] = −logIC50 M, L. donovani infected THP-1 macrophages, 96 hours, read-out: pIC50 against intra-macrophage L. donovani amastigotes (converted)
# T1 sequence (E9AFX2 whole entry): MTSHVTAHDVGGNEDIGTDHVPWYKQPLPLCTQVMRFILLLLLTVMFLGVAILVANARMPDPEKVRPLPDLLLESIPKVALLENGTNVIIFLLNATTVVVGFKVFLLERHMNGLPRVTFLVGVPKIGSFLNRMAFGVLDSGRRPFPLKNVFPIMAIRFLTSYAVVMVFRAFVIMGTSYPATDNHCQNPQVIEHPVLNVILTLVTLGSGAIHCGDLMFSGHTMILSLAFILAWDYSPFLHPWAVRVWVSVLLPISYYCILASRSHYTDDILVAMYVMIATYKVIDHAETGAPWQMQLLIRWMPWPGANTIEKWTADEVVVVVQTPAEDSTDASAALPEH
# T2 sequence (E9AFX2 whole entry): as above
Compound,IC50 (THP-1 macrophages),pSI v THP-1 (THP-1 macrophages; [4]),IC50 (HepG2 cells),pSI v HepG2 (HepG2 cells; [5]),"IC50 [1, 6]","IC50 [2, 7]",IC50 (LmjFIPCS; [8]),other results
CN(C)S(=O)(=O)c1ccc(Cl)c(NS(=O)(=O)c2ccc(C(C)(C)C)cc2)c1 [ST/1238223],> 50.1 µM,0.00,> 100 µM,1.17,6.76 µM,> 50.1 µM,,
O=C(NC1CCN(Cc2ccc(Cl)s2)CC1)N1CCc2cc(Cl)ccc21 [ST/1291407],6.03 µM,0.46,67.6 µM,1.37,2.88 µM,2.09 µM,,
CC(=O)N1N=C(c2ccco2)OC1COc1ccc(Cl)cc1C (stereo not drawn) [ST/1451140],> 50.1 µM,0.00,> 100 µM,1.16,6.92 µM,> 50.1 µM,,
CC(=O)N1N=C(COc2ccc(Cl)cc2C)OC1c1cccs1 (stereo not drawn) [ST/1455408],> 50.1 µM,0.00,97.7 µM,1.10,7.76 µM,> 50.1 µM,,
CC(C)CCN1C(=O)C(N)C(=O)N(CC2CCCCC2)c2ccccc21 (stereo not drawn) [VMTA/1987/36/2],> 50.1 µM,,81.3 µM,,2 µM,,,"pSI v THP-1 (THP-1 macrophages; selectivity, pIC50 InMac minus pIC50 THP-1): 0.79; pSI v HepG2 (HepG2 cells; selectivity, pIC50 axenic minus pIC50 HepG2): 1.61; IC50 ([2]; intramacrophage L. donovani amastigotes, read-out: pIC50 InMac (converted)): 8.13 µM"
O=S(=O)(c1ccc2c(c1)CCN(Cc1ccc(F)cc1)CC2)n1cccc1 [compound 1],,,,,,,0.158 µM,"IC50 [3]: 3.16 µM; IC50 (L. major Δlcb2 mutant): 3.16 µM; IC50 [1, 9]: 0.0251 µM; IC50 [2, 10]: 3.16 µM"
O=S(=O)(c1ccc2c(c1)CCN(Cc1cccnc1)CC2)n1ccc2c(F)cccc21 [compound 2],,,,,,,6.31 µM,"IC50 [1, 9]: 0.398 µM; IC50 [2, 10]: 2 µM"
O=S(=O)(c1ccc2c(c1)CCN(Cc1cccnc1)CC2)n1cccc1 [compound 6],,,,,,,,pIC50 against LmjFIPCS in vitro (LmjFIPCS; [8]): lost activity
O=S(=O)(c1ccc2c(c1)CCN(Cc1ccc(F)cc1)CC2)n1ccc2c(F)cccc21 [compound 7],,,,,,,0.0631 µM,"IC50 [3]: 3.16 µM; IC50 (L. major Δlcb2 mutant): > 10 µM; maximal inhibition of LmjFIPCS in vitro (LmjFIPCS; even at higher concentrations): ≤ 60%; in cellulo inhibition of IPC synthase activity (incorporation of BODIPY FL C5-ceramide into IPC) (in cellulo LmjFIPCS): considerably greater in cellulo inhibition of IPC synthase activity than compound 1; also recorded: greater activity against in cellulo LmjFIPCS than compound 1; pIC50 against intra-macrophage L. donovani amastigotes ([2]; −logIC50 M, L. donovani infected THP-1 macrophages, 96 hours): lost"
